Values of other authors, collected in patent publication US10292948B2 (Torrent Pharmaceuticals Limited, priority 2017, dated 2019).

What was measured:
[1] = pH dependent

Q: For `CC[C@@H](c1cccc(O)c1)[C@@H](C)CN(C)C.Cl` [Tapentadol, 3-[(1R,2R)-3-(dimethylamino)-1-ethyl-2-methylpropyl]phenol], which “time of maximum serum concentration” value (after oral dosing) is on record?
A: around 1.25 hours

Q: What about the “administered tapentadol metabolized (first-pass metabolism)” value (oral administration) of the same molecule?
A: about 97%

Q: What about the bioavailability (oral administration) of the same molecule?
A: 32%

Q: And the “time after administration at which absorption occurs” value (oral formulations)?
A: at least 45 minutes

Q: And the solubility [1]?
A: highly soluble
